From patent US6355633B1, “Aryl sulfonic acids and derivatives as FSH antagonists” (American Home Products Corporation, priority 1999, dated 2002)

Assays:
[1] = target: T1, FSH receptor (Homo sapiens, UniProt P23945); assay: FSH Receptor Radioligand Membrane Binding Standard Pharmacological Test Procedure; parameters: expressed in transfected cells; settings: [125I]FSH binding to membranes of CHO cells stably transfected with the human FSH receptor
T1 sequence (P23945 18-695): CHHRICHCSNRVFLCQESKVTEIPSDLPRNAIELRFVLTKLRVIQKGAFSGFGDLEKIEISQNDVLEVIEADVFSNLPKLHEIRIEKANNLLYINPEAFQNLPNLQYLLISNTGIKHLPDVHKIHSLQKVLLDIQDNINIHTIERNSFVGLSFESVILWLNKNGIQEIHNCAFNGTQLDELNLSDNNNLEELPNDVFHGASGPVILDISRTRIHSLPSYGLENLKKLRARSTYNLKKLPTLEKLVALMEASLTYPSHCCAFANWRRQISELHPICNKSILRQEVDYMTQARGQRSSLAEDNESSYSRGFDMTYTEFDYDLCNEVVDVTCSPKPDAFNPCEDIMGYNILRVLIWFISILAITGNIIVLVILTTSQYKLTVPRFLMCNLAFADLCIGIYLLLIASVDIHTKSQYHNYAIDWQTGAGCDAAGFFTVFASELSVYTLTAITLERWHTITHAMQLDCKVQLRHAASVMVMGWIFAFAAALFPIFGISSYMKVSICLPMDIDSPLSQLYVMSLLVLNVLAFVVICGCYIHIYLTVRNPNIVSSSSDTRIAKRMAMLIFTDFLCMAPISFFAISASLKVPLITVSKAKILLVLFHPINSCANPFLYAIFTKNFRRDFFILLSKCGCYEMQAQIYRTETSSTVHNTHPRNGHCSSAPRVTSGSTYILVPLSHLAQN
Procedure: FSH Receptor Radioligand Membrane Binding Standard Pharmacological Test Procedure
Membrane Source: Chinese hamster ovarian cells stably transfected with the human FSH receptor were cultured (Ultra CHO medium containing 1% fetal bovine serum and 200 μg/mL G418) in and harvested. Cells were collected by centrifugation and resulting cell pellets were frozen and stored at −70° C.
Membrane Receptor Preparation: Frozen cell pellets were weighed and resuspended in binding buffer to a final concentration of 30 mg wet weight/mL. Cell suspension for each pellet was homogenized using a Tempest homogenizer (setting=1; 5 strokes; VirTis, Gardiner, N.Y.). Cell homogenates were pooled and 35 mL aliquots were transferred to 50-mL polypropylene copolymer centrifuge tubes (Nalgene cat. #3110-0500). Tubes were spun at 12,000 rpm (SS34 rotor) for 12 min at 4° C. Resulting supernatant fractions were discarded and pellets were stored at −70° C. until use. On the day of the procedure, 35 mL binding buffer was added to each tube (35 mL membrane suspension was sufficient for three 96-well plates). The membrane pellet was dispersed by trituration using a pipet. The resulting suspension wass homogenized using a Tempest homogenizer (3 strokes at setting=1).
Receptor Binding Test procedure: Membrane homogenate (100 μl) was added to each well of a 96-well microtiter plate (Falcon # 3077). All reactions were tested in triplicate. Test compound solutions (50 μl) were added to the designated wells. Total bound counts were determined by adding 50 μl binding buffer containing 4% DMSO to the designated wells. […] Plates were pre-incubated for 15 min at room temperature on shaking platform (setting=3). After preincubation [^125I]FSH (50 μl) was added to each well and plates were incubated for 2 h at room temperature on shaking platform (setting=3). The reaction was terminated by transfer of the membrane preparation to glass fiber filters (Blue Mat #11740; 102×256 mm; Skatron Instruments, Sterling, Va.) that had been pretreated with 1% BSA in wash buffer for at least 30 min, but not longer than 1 h using a 96-well microtiter vacuum harvester (Skatron Instruments). The membrane preparation was washed with 5 cycles of ice-cold wash buffer (200 μl/well/cycle) followed by a pulse wash of 3 cycles (100 μl/well/cycle). The total wash volume per well was 1.3 mL. The filters were dried by a 10 sec aspiration. Disks corresponding to each well of the microtiter plate were punched out of the filter mat into 12×75 mm polypropylene tubes. The radioactivity present on each of the disks was measured using a gamma counter.
An FSH dose response curve (0.001, 0.01, 0.1, 1, 10, and 100 nM) was generated for each binding procedure to monitor procedure to procedrue variability.
FSH Receptor Radioligand Membrane Binding Procedure Buffers and Reagents
Binding buffer is prepared in 11 volumes containing Trizma-HCl, MgCl2, CaCl2 and sodium azide, the pH was adjusted to 7.2 with NaOH, and stored at 4° C. until use. BSA was weighed out on the day of the procedure and added to the amount of buffer required for the procedure (usually 150 mL). The protease inhibitors were prepared as 1 mg/mL stocks (aprotinin, leupeptin, and phosphoramidon were prepared in binding buffer without BSA and protease inhibitors; pepstatin and PMSF were prepared in methanol), stored in 1 mL aliquots at −70° C., and added to the binding buffer on the day of the procedure.
Wash buffer was prepared containing Trizma-HCl, MgCl2 and EDTA, the pH was adjusted to 7.2 with NaOH, and stored at 4° C.
Filter Soak Buffer (pH 7.2)
BSA was weighed out on the day of the procedure and added to 300 mL of wash buffer. The filter soak buffer was used for two procedures before being discarded.
A portion of the stock solution was diluted in binding buffer to a concentration of 200 pM.
FSH Solution for Determining Non-specific Binding: Purified human FSH was prepared as a 100 μM solution in binding buffer without protease inhibitors. […]

[2] = target: T1, FSH receptor; assay: In Vitro Bio-test Procedure of Agonists and Antagonists to the FSH Receptor (cAMP accumulation in CHO-3D2 cells); assay type: cell-based; parameters: expressed in transfected cells; host or cells: CHO-3D2 cells
Procedure: In Vitro Bio-test Procedure of Agonists and Antagonists to the FSH Receptor
The compounds were subsequently diluted in sterile procedure medium (Optimem (Gibco/BRL, Grand Island, N.Y.)/0.1% BSA) prior to use in the bio-procedure.
Preparation of CHO-3D2 Cells; CHO-3D2 cells were plated into 96-well Nunc tissue culture plates at a density of 30,000 cells/well in DMEM/F12 medium (Gibco/BRL, Grand Island, N.Y.) supplemented with 5% Fetal Bovine Serum (Hyclone, Fetal Clone II), 2 mM L-glutamine and penicillin/streptomycin (100 U/mL). Cells were plated one day prior to performing the bio-procedure.
Procedure: On the day of procedure, the wells were washed two times with 100 ul/well of pre-warmed (37 deg C.) procedure medium. After aspirating the second wash, an additional 100 ul of procedure medium was added to each well and the cells pre-incubated for 30-45 minutes at 37 deg C. In a humidified incubator with 5%CO2/95% air. The cells were then challenged with varying dilutions of the test substance(s) in a 50 ul total incubation volume in procedure medium for 30 minutes at 37 deg C. in the humidified incubator. The challenge was terminated by the addition of 50 ul of 0.2 N HCl to each well. CAMP accumulation in the medium was measured by radioimmunoassay.
Test Groups: In the 96-well format, the plate is organized into 12 columns each containing 8 rows of wells. The plate was split in half to test a single compound in both agonist and antagonist mode on the same plate.
For agonist mode, compounds were tested using 5 different concentrations in a dose-response paradigm using one column as a control (challenge medium alone) in agonist mode.
The 96-well format allowed for the capability to test 4 columns of compound, using one of the remaining columns for negative control (challenge medium alone) and the other remaining column for ampositive control (ED20 of FSH alone).
The doses chosen to test each compound were extrapolated from the initial screening process (receptor binding data). Along with the test compounds, FSH was run in agonist mode using doses ranging from 0.1 ng/mL-1000 ng/mL as a postive control. Cytotoxicity of the compounds were screened by treating cells with the highest concentration of each compound used in the cAMP procedure for 30 minutes followed by washing of the cells 2 times with 100 ul PBS. The cells were then incubated for 5 min at 37 deg C. in the presence of 50 ug/mL Fluorescein diacetate and 20 ug/mL Propidium iodide in 100 ul PBS. The cells were washed two times with 100 ul PBS followed by examination of the cells under a fluorescence microscope using a 490 nm filter. Viable cells stained green throughout, while dead cells had red fluorescent nuclei.
Analysis of Results: cAMP accumulation was expressed as fmol/mL. […] Data were analyzed statistically by analysis of variance and significant differences between treatments and control determined by Dunnett's test. In antagonist mode, a Duncan's test was used.
Reference Compounds: Test compounds were compared to the effect of purified or recombinant human FSH.

Row | Compound | IC50 [1] | IC50 [2] | IC50 ([2]; antagonist mode, inhibition of hFSH-induced cAMP accumulation (ED20 of FSH, […]), CHO-3D2 cells)
1 | COCCOc1ccc(C(=O)Nc2ccc(CCc3ccc(NC(=O)c4ccc(OC)c(S(=O)(=O)N5CCOCC5)c4)cc3S(=O)(=O)O)c(S(=O)(=O)O)c2)cc1 [Example 43h, 5-[[4-(2-Methoxyethoxy)benzoyl]amino]-2-[2-[4-[[4-methoxy-3-(4-morpholinylsulfonyl)benzoyl]amino]-2-sulfophenyl]ethyl]benzenesulfonic Acid] | 12 µM | 12 µM | –
2 | CCSc1ccc(C(=O)Nc2ccc(/C=C/c3ccc(NC(=O)c4ccc(SCC)c(S(=O)(=O)N5CCOCC5)c4)cc3S(=O)(=O)O)c(S(=O)(=O)O)c2)cc1S(=O)(=O)N1CCOCC1 [Example 32i, 2,2′-[(E)-1,2-Ethenediyl]bis[5-[[4-(ethylthio)-3-(4-morpholinylsulfonyl)benzoyl]amino]benzenesulfonic Acid]] | 3.7 µM | 4.9 µM | –
3 | COc1ccc(C(=O)Nc2ccc(CCc3ccc(NC(=O)c4ccc(OC)c(S(=O)(=O)N5CCCCC5)c4)cc3S(=O)(=O)O)c(S(=O)(=O)O)c2)cc1S(=O)(=O)N1CCCCC1 [Example 43b] | 17 µM | 28 µM | –
4 | COc1ccc(C(=O)Nc2ccc(/C=C/c3ccc(NC(=O)c4ccc(OC)c(S(=O)(=O)N5CCCCCC5)c4)cc3S(=O)(=O)O)c(S(=O)(=O)O)c2)cc1S(=O)(=O)N1CCCCCC1 [Example 33f] | 16 µM | 11 µM | –
5 | COC(=O)C=CCS(=O)(=O)c1cccc(C(=O)Nc2ccc(C=Cc3ccc(NC(=O)c4cccc(S(=O)(=O)CC=CC(=O)OC)c4)cc3S(=O)(=O)O)c(S(=O)(=O)O)c2)c1 [Example 32e, 4-{3-[4-(2-{4-{3-(3-Methoxycarbonyl-prop-2-ene-1-sulfonyl)-benzoylamino]-2-sulfo-phenyl}-vinyl)-3-sulfo-phenylcarbomoyl]-benzenesulfonyl}-but-2-enoic Acid, Methyl Ester] | 4.9 µM | – | 9 µM
6 | COc1ccc(C(=O)Nc2ccc(CCc3ccc(NC(=O)c4ccc(OC)c(S(=O)(=O)N5CCCC5)c4)cc3S(=O)(=O)O)c(S(=O)(=O)O)c2)cc1S(=O)(=O)N1CCCC1 [Example 43g, 2,2′-(1,2-Ethanediyl)bis[5-[[4-methoxy-3-(1-pyrrolidinylsulfonyl)benzoyl]amino]benzenesulfonic Acid]] | 7 µM | 12 µM | –
7 | C=CCS(=O)(=O)c1ccc(C(=O)Nc2ccc(/C=C/c3ccc(NC(=O)c4ccc(S(=O)(=O)CC=C)cc4)cc3S(=O)(=O)O)c(S(=O)(=O)O)c2)cc1 [Example 32a] | 3.5 µM | 2.3 µM | –
8 | COc1ccc(C(=O)Nc2ccc(/C=C/c3ccc(NC(=O)c4ccc(OC)c(S(=O)(=O)NCCN5CCOCC5)c4)cc3S(=O)(=O)O)c(S(=O)(=O)O)c2)cc1S(=O)(=O)NCCN1CCOCC1 [Example 30n] | 1.8 µM | 5.5 µM | –
9 | COc1ccc(C(=O)Nc2ccc(Sc3ccc(NC(=O)c4ccc(OC)c(S(=O)(=O)N5CCOCC5)c4)cc3S(=O)(=O)O)c(S(=O)(=O)O)c2)cc1S(=O)(=O)N1CCOCC1 [Example 33h, 2,2′-Thiobis[5-[[4-methoxy-3-(4-morpholinylsulfonyl)benzoyl]amino]benzenesulfonic Acid]] | 23 µM | 67 µM | –
10 | COc1ccc(C(=O)Nc2ccc(CCc3ccc(NC(=O)c4ccc(OC)c(S(=O)(=O)N5CCOCC5)c4)cc3S(=O)(=O)O)c(S(=O)(=O)O)c2)cc1S(=O)(=O)N1CCOCC1 [Example 30p, 2,2′-(1,2-Ethanediyl)bis[5-[[4-methoxy-3-(4-morpholinylsulfonyl)benzoyl]amino]benzenesulfonic Acid]] | 2.5 µM | 11 µM | –
11 | COCCN(CCOC)S(=O)(=O)c1cc(C(=O)Nc2ccc(/C=C/c3ccc(NC(=O)c4ccc(OC)c(S(=O)(=O)N(CCOC)CCOC)c4)cc3S(=O)(=O)O)c(S(=O)(=O)O)c2)ccc1OC [Example 30o, 2,2′-[(E)-1,2-Ethenediyl]bis[5-[[3-[[bis(2-methoxyethyl)amino]sulfonyl]-4-methoxybenzoyl]amino]benzenesulfonic Acid]] | 2.4 µM | 6.2 µM | –
